Measurements taken from ChEMBL document CHEMBL1201862, “PubChem BioAssay data set” (2004).
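Grown in 96-well plates, cells were treated for 48 hours with each compound at five concentrations. Insufficient inhibition: endpoint recorded as highest concentration tested. Abbreviation: GI50, concentration required for 50% inhibition of growth.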 Active and inactive are the calls of the source. Cut-off read from the data, not from the text of the source: active = GI50 up to about 1.1 µM and inactive = higher.

Tests used:
Assay in all cases: NCI anticancer screen, dose series, 48 h
DMS-114 = tested on: DMS-114
M19-MEL = tested on: M19-MEL
786-0 = tested on: 786-0
NCI-H522 = tested on: NCI-H522
CAKI-1 = tested on: CAKI-1
SK-MEL-5 = tested on: SK-MEL-5
Malme-3M = tested on: Malme-3M
CCRF-CEM = tested on: CCRF-CEM
SK-MEL-2 = tested on: SK-MEL-2
SW-620 = tested on: SW-620
OVCAR-8 = tested on: OVCAR-8
EKVX = tested on: EKVX
RPMI-8226 = tested on: RPMI-8226
M14 = tested on: M14
SN12C = tested on: SN12C
UACC-257 = tested on: UACC-257
HL-60 = tested on: HL-60
HOP-62 = tested on: HOP-62
OVCAR-3 = tested on: OVCAR-3
HT-29 = tested on: HT-29
A498 = tested on: A498
IGROV-1 = tested on: IGROV-1
NCI-H226 = tested on: NCI-H226
COLO 205 = tested on: COLO 205
RXF 393 = tested on: RXF 393
HCT-116 = tested on: HCT-116
UACC-62 = tested on: UACC-62
HCT-15 = tested on: HCT-15
U-251 = tested on: U-251
UO-31 = tested on: UO-31
SK-OV-3 = tested on: SK-OV-3
XF498 = tested on: XF498
NCI-H460 = tested on: NCI-H460
KM-20L2 = tested on: KM-20L2
SF-539 = tested on: SF-539
DLD-1 = tested on: DLD-1
SNB-78 = tested on: SNB-78
SK-MEL-28 = tested on: SK-MEL-28
MOLT-4 = tested on: MOLT-4
DMS-273 = tested on: DMS-273
A549 = tested on: A549
SNB-75 = tested on: SNB-75
OVCAR-5 = tested on: OVCAR-5
TK-10 = tested on: TK-10
SF-295 = tested on: SF-295
LOX IMVI = tested on: LOX IMVI
SF-268 = tested on: SF-268
HCC 2998 = tested on: HCC 2998
SNB-19 = tested on: SNB-19
K562 = tested on: K562
LXFL 529 = tested on: LXFL 529
NCI-H23 = tested on: NCI-H23
KM12 = tested on: KM12
ACHN = tested on: ACHN
DU-145 = tested on: DU-145
BT-549 = tested on: BT-549
OVCAR-4 = tested on: OVCAR-4
Hs-578T = tested on: Hs-578T
HOP-92 = tested on: HOP-92
MDA-MB-435 = tested on: MDA-MB-435
MCF7 = tested on: MCF7
NCI/ADR-RES = tested on: NCI/ADR-RES
SR = tested on: SR
T47D = tested on: T47D
PC-3 = tested on: PC-3
MDA-N = tested on: MDA-N
MDA-MB-231 = tested on: MDA-MB-231

Structure (SMILES): CS(=O)(=O)N(CCC#N)c1ccc(/C=C2\N=C(c3ccccc3Cl)OC2=O)cc1
- GI50 (DMS-114): > 100 µM (inactive)
- GI50 (M19-MEL): > 100 µM (inactive)
- GI50 (786-0): > 100 µM (inactive)
- GI50 (NCI-H522): > 100 µM (inactive)
- GI50 (CAKI-1): > 100 µM (inactive)
- GI50 (SK-MEL-5): > 100 µM (inactive)
- GI50 (Malme-3M): > 100 µM (inactive)
- GI50 (CCRF-CEM): > 100 µM (inactive)
- GI50 (SK-MEL-2): > 100 µM (inactive)
- GI50 (SW-620): > 100 µM (inactive)
- GI50 (OVCAR-8): > 100 µM (inactive)
- GI50 (EKVX): > 100 µM (inactive)
- GI50 (RPMI-8226): > 100 µM (inactive)
- GI50 (M14): > 100 µM (inactive)
- GI50 (SN12C): > 100 µM (inactive)
- GI50 (UACC-257): > 100 µM (inactive)
- GI50 (HL-60): > 100 µM (inactive)
- GI50 (HOP-62): > 100 µM (inactive)
- GI50 (OVCAR-3): > 100 µM (inactive)
- GI50 (HT-29): > 100 µM (inactive)
- GI50 (A498): > 100 µM (inactive)
- GI50 (IGROV-1): > 100 µM (inactive)
- GI50 (NCI-H226): > 100 µM (inactive)
- GI50 (COLO 205): > 100 µM (inactive)
- GI50 (RXF 393): > 100 µM (inactive)
- GI50 (HCT-116): > 100 µM (inactive)
- GI50 (UACC-62): > 100 µM (inactive)
- GI50 (HCT-15): > 100 µM
- GI50 (U-251): > 100 µM (inactive)
- GI50 (UO-31): > 100 µM (inactive)
- GI50 (SK-OV-3): > 100 µM (inactive)
- GI50 (XF498): > 100 µM (inactive)
- GI50 (NCI-H460): > 100 µM (inactive)
- GI50 (KM-20L2): > 100 µM (inactive)
- GI50 (SF-539): > 100 µM (inactive)
- GI50 (DLD-1): > 100 µM (inactive)
- GI50 (SNB-78): > 100 µM (inactive)
- GI50 (SK-MEL-28): > 100 µM (inactive)
- GI50 (MOLT-4): > 100 µM (inactive)
- GI50 (DMS-273): > 100 µM (inactive)
- GI50 (A549): > 100 µM (inactive)
- GI50 (SNB-75): > 100 µM (inactive)
- GI50 (OVCAR-5): > 100 µM (inactive)
- GI50 (TK-10): > 100 µM (inactive)
- GI50 (SF-295): > 100 µM (inactive)
- GI50 (LOX IMVI): > 100 µM (inactive)
- GI50 (SF-268): > 100 µM (inactive)
- GI50 (HCC 2998): > 100 µM (inactive)
- GI50 (SNB-19): > 100 µM (inactive)
- GI50 (K562): > 100 µM (inactive)
- GI50 (LXFL 529): > 100 µM (inactive)
- GI50 (NCI-H23): > 100 µM (inactive)
- GI50 (KM12): > 100 µM (inactive)
- GI50 (ACHN): > 100 µM (inactive)

Structure (SMILES): CC1(C)O[C@H]2OC3CCC(=O)CC3(O)[C@H]2O1 (stereo partly drawn)
- GI50 (DMS-114): > 100 µM (inactive)
- GI50 (M19-MEL): > 100 µM (inactive)
- GI50 (786-0): > 100 µM (inactive)
- GI50 (NCI-H522): > 100 µM (inactive)
- GI50 (CAKI-1): > 100 µM (inactive)
- GI50 (DU-145): > 100 µM (inactive)
- GI50 (SK-MEL-5): > 100 µM (inactive)
- GI50 (BT-549): > 100 µM (inactive)
- GI50 (OVCAR-4): > 100 µM (inactive)
- GI50 (Malme-3M): > 51.6 µM (inactive)
- GI50 (CCRF-CEM): > 100 µM (inactive)
- GI50 (SK-MEL-2): > 100 µM (inactive)
- GI50 (Hs-578T): > 100 µM (inactive)
- GI50 (SW-620): > 100 µM (inactive)
- GI50 (OVCAR-8): > 100 µM (inactive)
- GI50 (EKVX): > 100 µM (inactive)
- GI50 (RPMI-8226): > 100 µM (inactive)
- GI50 (M14): > 100 µM (inactive)
- GI50 (HOP-92): > 73.3 µM (inactive)
- GI50 (SN12C): > 100 µM (inactive)
- GI50 (UACC-257): > 100 µM (inactive)
- GI50 (HL-60): > 100 µM (inactive)
- GI50 (HOP-62): > 100 µM (inactive)
- GI50 (MDA-MB-435): > 100 µM (inactive)
- GI50 (OVCAR-3): > 100 µM (inactive)
- GI50 (HT-29): > 100 µM (inactive)
- GI50 (A498): > 100 µM (inactive)
- GI50 (IGROV-1): > 100 µM (inactive)
- GI50 (NCI-H226): > 100 µM (inactive)
- GI50 (COLO 205): > 100 µM (inactive)
- GI50 (RXF 393): > 100 µM (inactive)
- GI50 (HCT-116): > 100 µM (inactive)
- GI50 (UACC-62): > 100 µM (inactive)
- GI50 (HCT-15): > 100 µM
- GI50 (U-251): > 100 µM (inactive)
- GI50 (UO-31): > 100 µM (inactive)
- GI50 (SK-OV-3): > 100 µM (inactive)
- GI50 (MCF7): > 100 µM (inactive)
- GI50 (XF498): 0.507 µM (active)
- GI50 (NCI-H460): > 100 µM (inactive)
- GI50 (SF-539): > 100 µM (inactive)
- GI50 (DLD-1): > 100 µM (inactive)
- GI50 (SNB-78): > 100 µM (inactive)
- GI50 (SK-MEL-28): > 100 µM (inactive)
- GI50 (MOLT-4): > 100 µM (inactive)
- GI50 (A549): > 100 µM (inactive)
- GI50 (SNB-75): > 100 µM (inactive)
- GI50 (OVCAR-5): > 100 µM (inactive)
- GI50 (NCI/ADR-RES): > 100 µM (inactive)
- GI50 (TK-10): > 100 µM (inactive)
- GI50 (SR): > 100 µM (inactive)
- GI50 (SF-295): > 100 µM (inactive)
- GI50 (LOX IMVI): > 100 µM (inactive)
- GI50 (SF-268): > 100 µM (inactive)
- GI50 (HCC 2998): > 100 µM (inactive)
- GI50 (SNB-19): > 100 µM (inactive)
- GI50 (K562): > 100 µM (inactive)
- GI50 (T47D): > 100 µM (inactive)
- GI50 (PC-3): > 100 µM (inactive)
- GI50 (NCI-H23): > 100 µM (inactive)
- GI50 (KM12): > 100 µM (inactive)
- GI50 (MDA-N): > 100 µM (inactive)
- GI50 (ACHN): > 100 µM (inactive)
- GI50 (MDA-MB-231): > 100 µM (inactive)
